From patent publication US20230032623A1, “Tumor-on-a-chip” (NEW YORK UNIVERSITY, priority 2021, published 2023)
Entries after “also recorded” stand apart in the source; their conditions may differ.

Tests used:
Format in all cases: cell-based, human
allogeneic CD8+ T-cells [1] = experiment: CD8+ T-cell activation analysis (CD154 expression) in GBM-on-a-Chip; conditions: BLZ945 0.1 μg/ml, nivolumab 1 μg/ml, mono or dual, 3 days
Description: To characterize the expression of surface marks on GBM cell, CD8+ T-cell and TAM, cells were firstly recovered with Corning Cell Recovery Solution (Corning, N.Y., USA) from the brain tissue-mimicking hydrogel. Briefly, cell culture medium was aspirated, and the microfluidics chip was rinsed with cold 1× PBS twice, 10 min per round. PDMS slabs were detached from the cover glass in the microfluidics chip, followed by incubation with Corning Cell Recovery Solution on ice for 30 min. With gently pipetting the channel containing cells, the cell suspension was centrifuged, washed with cold 1 x PBS twice and then resuspended in 5% BSA blocking buffer. All cell samples were fixed in 4% paraformaldehyde (PFA) (Sigma-Aldrich) for 10 min at room temperature. […] To quantify PD-1 expression on CD8+ T-cell, cells were first incubated with PD-1 primary antibody (367402, Biolegend) for 1 hr, and then visualized with Alexa Fluor 488 conjugated goat anti-mouse IgG secondary antibodies (Invitrogen, 5 μg/mL). […] PD-1 and CD154 expressions on CD8+ T-cell, PD-L1 and CD163 expressions on macrophage were quantified based on the mean florescent intensity of cell staining using ImageJ (NIH). Alternatively, ratios of CD154+ or CD163+-cells were calculated relative to CD8+ cells or CD68+ cells, respectively. […]

allogeneic CD8+ T-cells [2] = experiment: Allogeneic CD8+ T-cell extravasation/infiltration across brain microvessels in GBM-on-a-Chip; conditions: BLZ945 0.1 μg/ml, nivolumab 1 μg/ml, mono or dual, every 24 hr for 3 days, PN, CL, MES GBM
Description: (§1) Patient-derived GBM cells were firstly dissociated with Accutase (Innovative Cell Technologies), and then labeled with CellTracker Red (5 μM, C34552, Thermo Fisher-Scientific) as per the manufacturer's instructions. TAMs and GBM cells were then mixed with a number ratio of 1:2 at a cell density of 1×10^8 cells/mL in the brain tissue-mimicking hydrogel. The final cell numbers of GBM and TAMs were about 1×10^5 cells per chip. […] Hydrogel solution was then quickly flushed into the hydrogel loading channel, and then incubated in an incubator at 37° C. and 5% CO2 for 30 min for complete gelation. After incubation, the media infusion channel and the vascular-seeding channel was flushed with fresh cell culture media for 2 hr. HBMVECs labeled with DiD (5 μM, V22887, Thermo Fisher-Scientific) were seeded into the vascular-seeding channel at a density of 5×10^6 cells/mL, and incubated at 37° C. and 5% CO2 overnight with fresh cell culture media. To form the vascular lumens, the microfluidic chip was flipped every 15 mins for 2 hr to let HBMVECs to uniformly attach to the vascular-seeding channel. After 24 hr′ incubation, IL-2 activated allogeneic CD8+ T-cells were firstly labeled with CellTracker Green (5 μM, C2925, Thermo Fisher-Scientific) and loaded into the vascular channel at a total cell number of 1×10^6 cells per chip. After culture in the incubator for 1-3 days, live cell images of different cell compartments were captured by an inverted fluorescent microscope (Zeiss Axio Observer.Z1).
Infiltrated CD8+ T-cells were defined as the CD8+ T-cells migrating out of vascular lumens. To quantify the migration behaviors of those CellTracker Green-labeled allogeneic CD8+ T-cells, time-lapsed image stacks were acquired every minute for 2 hr and at least three positions in each microfluidic chip. The cell centroids at different time points of the same cell were then used to calculate the cell migration speed and linked up to represent the migration trajectories by using ImageJ (NIH). The mean migration speeds were then averaged for all infiltrated cells. […]

[3] = tested on: patient-derived GBM cells; experiment: Quantification of GBM cell apoptosis (caspase-3/7 activation) in GBM-on-a-Chip; conditions: BLZ945 0.1 μg/ml, nivolumab 1 μg/ml, mono or dual; for GBM cell apoptosis with presence of microglia versus macrophage only system: HMC3 microglia present, PN, CL, MES GBM
Description: as §1
To examine the apoptosis of GBM cells in the microfluidic model, CellEvent Caspase-3/7 Green Detection Reagent (R37111, Thermo Fisher-Scientific) and Hoechst 33342 (5 μg/mL; H3570, Thermo Fisher-Scientific) were used to distinguish the apoptotic cells that with activated caspase-3/7 with bright green nuclei. […] The ratio of apoptotic GBM cells were calculated as the number of cells with green nuclei to the total number of GBM cells that were stained with CellTracker Red (5 μM, C34552, Thermo Fisher-Scientific). […]

[4] = tested on: tumor-associated macrophages (TAMs); experiment: CD163 (M2-like marker) expression on TAM in GBM-on-a-Chip, immunostaining and qPCR
Description: U937 monocytes were polarized into macrophages with treatments of 5 nM PMA (Sigma-Aldrich) for 24 hr (Shi Y et al., Nature communications. 2017 Jun. 1; 8(1):1-7). Biomimetic TAMs (CD68+CD163+) were obtained by culturing U937-derived macrophages in complete culture media supplemented with supernatants of patient-derived GBM cells (5×10^5 cells/mL) which were collected after 3 days' culture and centrifuged at 2000×g for 10 min at 4° C. to remove cell debris. Cryopreserved human PBMCs (10HU-003, iXCells Biotechnologies) were thawed and cultured in RPMI-1640 medium (Gibco) supplemented with 10% FBS (Gibco) and 1% penicillin/streptomycin (Gibco) overnight before sorting for CD8+ T-cells. Allogeneic CD8+ T-cells were isolated from PBMCs via negative selection using MojoSort Human CD8 T-Cell Isolation Kit (MojoSort, 480011, Biolegend) as per the manufacturer's protocol (FIG. 7A through FIG. 7D). […]
To characterize the expression of surface marks on GBM cell, CD8+ T-cell and TAM, cells were firstly recovered with Corning Cell Recovery Solution (Corning, N.Y., USA) from the brain tissue-mimicking hydrogel. […] To quantify PD-1 expression on CD8+ T-cell, cells were first incubated with PD-1 primary antibody (367402, Biolegend) for 1 hr, and then visualized with Alexa Fluor 488 conjugated goat anti-mouse IgG secondary antibodies (Invitrogen, 5 μg/mL). […]

PD-L1 = experiment: qPCR analysis of PD-L1 expression in TAM and GBM cell
Description: Control groups were treated with fresh cell culture media supplemented with DMSO (0.01%) and human IgG4 isotype control antibody (1 μg/mL, BioLegend). Fresh cell culture media supplemented anti-PD-1 and anti-CSF-1R antibodies was loaded in the microfluidic channels 2 hr after loading allogeneic CD8+ T-cells. Blocking media was freshly prepared and replenished every 24 hr for 3 days.
RNA was extracted using RNeasy Plus Mini Kit (Qiagen, US), and cDNA was synthesized from the mRNA using SuperScript IV VILO Master Mix for RT-RCR (Invitrogen, US), followed by real-time PCR using a SYBR Green PCR Master Mix (Thermo Fisher Scientific, US) and QuantStudio six sequence detection system (Applied Biosystems, Thermo Fisher Scientific). The reactions were performed with the following cycling conditions: 95° C. for 10 min followed by 40 cycles of 95° C. for 15 s and 60° C. for 1 min. GAPDH was used as a housekeeping gene for normalization. All experiments were repeated three times. The relative change in gene expression was analyzed with the 2^−ΔΔCT method. […]

| Molecule | CD8+ T-cell activation (CD154 expression, CD154+CD8+ T-cells) (allogeneic CD8+ T-cells [1]) | Allogeneic CD8+ T-cell extravasation / infiltrated CD8+ T-cells (allogeneic CD8+ T-cells [2]) | GBM cell apoptosis with presence of microglia versus macrophage only system [3] | Allogeneic CD8+ T-cell extravasation / infiltrated CD8+ T-cells (allogeneic CD8+ T-cells [2]; listed as CSF-1R inhibitor) | GBM cell apoptosis (caspase-3/7 activation) ([3]; 3 days, macrophage-only system) | M2-like marker CD163 expression on TAM / macrophage polarization toward M2 phenotype ([4]; BLZ945 0.1 μg/ml every 24 hr for 3 days, PN (GBML20), CL (GBML08), MES (GBML91) GBM subtypes) | CD163 expression in TAM by qPCR ([4]; BLZ945 0.1 μg/ml, qPCR) | PD-L1 expression in TAM and GBM cells (PD-L1; BLZ945 0.1 μg/ml alone, qPCR) | mRNA expression of PD-L1 in GBM cell (PD-L1; BLZ945 0.1 μg/ml, GBM cells co-cultured with TAM) |
| --- | --- | --- | --- | --- | --- | --- | --- | --- | --- |
| nivolumab: human IgG4 anti-PD-1 monoclonal antibody; PD-1 blockade | did enhance CD8+T-cell activation in the PN and MES GBMs | did not increase the extravasation of allogeneic CD8+ T-cell | no significant difference with the GBM and macrophage only condition |  |  |  |  |  |  |
| CNC(=O)c1cc(Oc2ccc3nc(N[C@@H]4CCCC[C@H]4O)sc3c2)ccn1 [BLZ945] | did not significantly reverse the immunosuppression onto the cytotoxic CD8+ T-cell | can significantly enhance allogeneic CD8+ T-cell extravasation across brain microvessels | no significant difference with the GBM and macrophage only condition | increased allogeneic CD8+ T-cell infiltration in the tumor | limited effect on tumor apoptosis | suppressed the polarization of macrophages toward an immunosuppressive M2 phenotype in all three GBM subtypes with more significant CD163 marker suppression in the CL and MES GBM subtypes relative to the PN GBM; also recorded: limited expression of CD163 in all GBM subtypes | inhibition of CD163 expression in TAM | no significant change in PD-L1 expression for both TAM and GBM cells | did not change the PD-L1 expression in GBM cells |
